# Several values for one entry are separate records, joined by “and”; a condition that tells them apart may be missing. Identical values can stand only once.
# Tests used:
# Experiment in all cases: SelectScreen kinase assay
# Assay type in all cases: biochemical
# FGFR3_K650E_h = biological target: T1, FGFR3_K650E_h (Homo sapiens, UniProt P22607, K650E); settings: KM ATP, read-out: % control
# T1 construct: purchased Life Technologies (Invitrogen) SelectScreen, Z'-LYTE / Adapta
# Outline: (§1)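 Z'-Lyte or Adapta format; compound fixed at 3 µM; ATP at KM, 10 µM or 100 µM as indicated; read-out % control relative to uninhibited DMSO wells.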
# PAK7_h = biological target: T2, PAK7_h (Homo sapiens, UniProt Q9P286); settings: KM ATP, read-out: % control
# T2 construct: purchased Life Technologies (Invitrogen) SelectScreen, Z'-LYTE / Adapta
# Outline: as §1
# MKK6_h = biological target: T3, MKK6_h (Homo sapiens, UniProt P52564); settings: 100 µM ATP, read-out: % control
# T3 construct: purchased Life Technologies (Invitrogen) SelectScreen, Z'-LYTE / Adapta
# Outline: as §1
# MYLK2_h = biological target: T4, MYLK2_h (Homo sapiens, UniProt Q9H1R3); settings: KM ATP, read-out: % control
# T4 construct: purchased Life Technologies (Invitrogen) SelectScreen, Z'-LYTE / Adapta
# Outline: as §1
# mTOR_h = biological target: T5, mTOR_h (Homo sapiens, UniProt P42345); settings: KM ATP, read-out: % control
# T5 construct: purchased Life Technologies (Invitrogen) SelectScreen, Z'-LYTE / Adapta
# Outline: as §1
# PKC-delta_h = biological target: T6, PKC-delta_h (Homo sapiens, UniProt Q05655); settings: KM ATP, read-out: % control
# T6 construct: purchased Life Technologies (Invitrogen) SelectScreen, Z'-LYTE / Adapta
# Outline: as §1
# JNK3_h = biological target: T7, JNK3_h (Homo sapiens, UniProt P53779); settings: 100 µM ATP, read-out: % control
# T7 construct: purchased Life Technologies (Invitrogen) SelectScreen, Z'-LYTE / Adapta
# Outline: as §1
# ARK5_h = biological target: T8, ARK5_h (Homo sapiens, UniProt O60285); settings: KM ATP, read-out: % control
# T8 construct: purchased Life Technologies (Invitrogen) SelectScreen, Z'-LYTE / Adapta
# Outline: as §1
# Mer_h = biological target: T9, Mer_h (Homo sapiens, UniProt Q12866); settings: KM ATP, read-out: % control
# T9 construct: purchased Life Technologies (Invitrogen) SelectScreen, Z'-LYTE / Adapta
# Outline: as §1
# Plk2_h = biological target: T10, Plk2_h (Homo sapiens, UniProt Q9NYY3); settings: KM ATP, read-out: % control
# T10 construct: purchased Life Technologies (Invitrogen) SelectScreen, Z'-LYTE / Adapta
# Outline: as §1
# PRAK_h = biological target: T11, PRAK_h (Homo sapiens, UniProt Q8IW41); settings: KM ATP, read-out: % control
# T11 construct: purchased Life Technologies (Invitrogen) SelectScreen, Z'-LYTE / Adapta
# Outline: as §1
# ROCK-I_h = biological target: T12, ROCK-I_h (Homo sapiens, UniProt Q13464); settings: KM ATP, read-out: % control
# T12 construct: purchased Life Technologies (Invitrogen) SelectScreen, Z'-LYTE / Adapta
# Outline: as §1
# p38-beta_h = biological target: T13, p38-beta_h (Homo sapiens, UniProt Q15759); settings: KM ATP, read-out: % control
# T13 construct: purchased Life Technologies (Invitrogen) SelectScreen, Z'-LYTE / Adapta
# Outline: as §1
# MST3_h = biological target: T14, MST3_h (Homo sapiens, UniProt Q9Y6E0); settings: KM ATP, read-out: % control
# T14 construct: purchased Life Technologies (Invitrogen) SelectScreen, Z'-LYTE / Adapta
# Outline: as §1
# Flt3_D835Y_h = biological target: T15, Flt3_D835Y_h (Homo sapiens, UniProt P36888, D835Y); settings: KM ATP, read-out: % control
# T15 construct: purchased Life Technologies (Invitrogen) SelectScreen, Z'-LYTE / Adapta
# Outline: as §1
# CLK2_h = biological target: T16, CLK2_h (Homo sapiens, UniProt P49760); settings: KM ATP, read-out: % control
# T16 construct: purchased Life Technologies (Invitrogen) SelectScreen, Z'-LYTE / Adapta
# Outline: as §1
# IRR_h = biological target: T17, IRR_h (Homo sapiens, UniProt P14616); settings: KM ATP, read-out: % control
# T17 construct: purchased Life Technologies (Invitrogen) SelectScreen, Z'-LYTE / Adapta
# Outline: as §1
# EGFR_L861Q_h = biological target: T18, EGFR_L861Q_h (Homo sapiens, UniProt P00533, L861Q); settings: KM ATP, read-out: % control
# T18 construct: purchased Life Technologies (Invitrogen) SelectScreen, Z'-LYTE / Adapta
# Outline: as §1
# Flt3_h = Flt3_h (Homo sapiens, UniProt P36888)
# CLK3_h = biological target: T19, CLK3_h (Homo sapiens, UniProt P49761); settings: KM ATP, read-out: % control
# T19 construct: purchased Life Technologies (Invitrogen) SelectScreen, Z'-LYTE / Adapta
# Outline: as §1
# Aurora-A_h = biological target: T20, Aurora-A_h (Homo sapiens, UniProt O14965); settings: KM ATP, read-out: % control
# T20 construct: purchased Life Technologies (Invitrogen) SelectScreen, Z'-LYTE / Adapta
# Outline: as §1
# PAK4_h = biological target: T21, PAK4_h (Homo sapiens, UniProt O96013); settings: KM ATP, read-out: % control
# T21 construct: purchased Life Technologies (Invitrogen) SelectScreen, Z'-LYTE / Adapta
# Outline: as §1
# PDGFR-alpha_D842V_h = biological target: T22, PDGFR-alpha_D842V_h (Homo sapiens, UniProt P16234, D842V); settings: KM ATP, read-out: % control
# T22 construct: purchased Life Technologies (Invitrogen) SelectScreen, Z'-LYTE / Adapta
# Outline: as §1
# NEK2_h = biological target: T23, NEK2_h (Homo sapiens, UniProt P51955); settings: KM ATP, read-out: % control
# T23 construct: purchased Life Technologies (Invitrogen) SelectScreen, Z'-LYTE / Adapta
# Outline: as §1
# MARK4_h = biological target: T24, MARK4_h (Homo sapiens, UniProt Q96L34); settings: KM ATP, read-out: % control
# T24 construct: purchased Life Technologies (Invitrogen) SelectScreen, Z'-LYTE / Adapta
# Outline: as §1
# GRK4_h = biological target: T25, GRK4_h (Homo sapiens, UniProt P32298); settings: KM ATP, read-out: % control
# T25 construct: purchased Life Technologies (Invitrogen) SelectScreen, Z'-LYTE / Adapta
# Outline: as §1
# MLK1_h = biological target: T26, MLK1_h (Homo sapiens, UniProt P80192); settings: KM ATP, read-out: % control
# T26 construct: purchased Life Technologies (Invitrogen) SelectScreen, Z'-LYTE / Adapta
# Outline: as §1
# Aurora-B_h = Aurora-B_h (Homo sapiens, UniProt Q96GD4)
# Outline: as §1
# EGFR_L858R_h = biological target: T27, EGFR_L858R_h (Homo sapiens, UniProt P00533, L858R); settings: KM ATP, read-out: % control
# T27 construct: purchased Life Technologies (Invitrogen) SelectScreen, Z'-LYTE / Adapta
# Outline: as §1
# PRKG1_h = biological target: T28, PRKG1_h (Homo sapiens, UniProt Q13976); settings: KM ATP, read-out: % control
# T28 construct: purchased Life Technologies (Invitrogen) SelectScreen, Z'-LYTE / Adapta
# Outline: as §1
# PDGFR-beta_h = biological target: T29, PDGFR-beta_h (Homo sapiens, UniProt P09619); settings: KM ATP, read-out: % control
# T29 construct: purchased Life Technologies (Invitrogen) SelectScreen, Z'-LYTE / Adapta
# Outline: as §1
# CK1-epsilon_h = biological target: T30, CK1-epsilon_h (Homo sapiens, UniProt P49674); settings: KM ATP, read-out: % control
# T30 construct: purchased Life Technologies (Invitrogen) SelectScreen, Z'-LYTE / Adapta
# Outline: as §1
# TrkB_h = biological target: T31, TrkB_h (Homo sapiens, UniProt Q16620); settings: KM ATP, read-out: % control
# T31 construct: purchased Life Technologies (Invitrogen) SelectScreen, Z'-LYTE / Adapta
# Outline: as §1
# [1] = 3 µM, KM ATP, read-out: % control
# [2] = 10-point dose-response, commercial vendor
# Sequence of Aurora-B_h (Q96GD4 whole entry): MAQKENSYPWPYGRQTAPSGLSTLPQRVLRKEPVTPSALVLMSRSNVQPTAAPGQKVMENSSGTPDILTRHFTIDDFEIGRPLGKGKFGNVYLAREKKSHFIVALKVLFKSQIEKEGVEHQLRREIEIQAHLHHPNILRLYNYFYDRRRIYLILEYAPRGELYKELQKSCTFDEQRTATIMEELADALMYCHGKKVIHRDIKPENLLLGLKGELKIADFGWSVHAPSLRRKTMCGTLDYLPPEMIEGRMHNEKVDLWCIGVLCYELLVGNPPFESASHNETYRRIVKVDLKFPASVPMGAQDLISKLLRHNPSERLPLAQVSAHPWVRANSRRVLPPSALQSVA
# T16 sequence (P49760 whole entry): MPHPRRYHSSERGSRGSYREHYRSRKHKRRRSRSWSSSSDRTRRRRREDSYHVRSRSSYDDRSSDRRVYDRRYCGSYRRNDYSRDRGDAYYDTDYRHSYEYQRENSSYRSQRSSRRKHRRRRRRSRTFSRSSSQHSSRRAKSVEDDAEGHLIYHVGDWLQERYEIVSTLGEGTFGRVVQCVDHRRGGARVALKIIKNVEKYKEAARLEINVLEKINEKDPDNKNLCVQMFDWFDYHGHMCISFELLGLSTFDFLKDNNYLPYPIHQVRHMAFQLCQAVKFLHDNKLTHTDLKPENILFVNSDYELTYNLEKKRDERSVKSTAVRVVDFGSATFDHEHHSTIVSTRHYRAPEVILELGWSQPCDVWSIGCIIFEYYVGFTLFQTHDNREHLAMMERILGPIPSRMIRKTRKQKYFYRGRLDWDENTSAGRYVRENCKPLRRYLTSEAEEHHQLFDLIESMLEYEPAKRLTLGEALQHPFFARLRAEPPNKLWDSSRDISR
# T29 sequence (P09619 33-1106): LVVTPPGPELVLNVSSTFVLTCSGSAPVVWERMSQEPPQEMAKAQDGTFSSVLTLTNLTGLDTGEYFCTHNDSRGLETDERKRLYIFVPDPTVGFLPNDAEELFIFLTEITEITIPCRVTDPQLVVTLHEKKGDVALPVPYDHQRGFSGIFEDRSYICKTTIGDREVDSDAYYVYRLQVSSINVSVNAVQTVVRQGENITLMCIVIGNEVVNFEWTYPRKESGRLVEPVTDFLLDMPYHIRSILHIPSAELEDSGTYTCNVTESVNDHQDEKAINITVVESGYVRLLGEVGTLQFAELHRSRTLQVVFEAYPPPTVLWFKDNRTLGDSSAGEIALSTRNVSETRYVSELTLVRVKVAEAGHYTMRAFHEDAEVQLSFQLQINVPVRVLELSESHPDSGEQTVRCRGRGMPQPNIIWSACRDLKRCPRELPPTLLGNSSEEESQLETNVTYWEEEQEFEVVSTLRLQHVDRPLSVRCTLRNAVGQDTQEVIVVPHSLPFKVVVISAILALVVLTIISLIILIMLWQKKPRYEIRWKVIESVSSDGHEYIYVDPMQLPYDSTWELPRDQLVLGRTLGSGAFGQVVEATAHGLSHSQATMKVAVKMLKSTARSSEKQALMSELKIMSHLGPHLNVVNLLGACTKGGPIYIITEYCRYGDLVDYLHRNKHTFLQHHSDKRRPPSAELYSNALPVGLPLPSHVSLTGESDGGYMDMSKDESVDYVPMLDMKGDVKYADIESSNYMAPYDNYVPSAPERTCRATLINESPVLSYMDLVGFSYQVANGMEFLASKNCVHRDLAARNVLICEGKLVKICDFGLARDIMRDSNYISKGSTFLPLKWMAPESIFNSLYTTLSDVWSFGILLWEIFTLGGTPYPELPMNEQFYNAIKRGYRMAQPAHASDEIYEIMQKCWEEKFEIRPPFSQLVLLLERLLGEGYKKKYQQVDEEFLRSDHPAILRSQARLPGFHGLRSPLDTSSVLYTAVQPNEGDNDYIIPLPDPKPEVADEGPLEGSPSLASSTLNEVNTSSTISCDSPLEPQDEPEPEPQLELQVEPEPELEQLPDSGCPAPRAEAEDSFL
# T3 sequence (P52564 whole entry): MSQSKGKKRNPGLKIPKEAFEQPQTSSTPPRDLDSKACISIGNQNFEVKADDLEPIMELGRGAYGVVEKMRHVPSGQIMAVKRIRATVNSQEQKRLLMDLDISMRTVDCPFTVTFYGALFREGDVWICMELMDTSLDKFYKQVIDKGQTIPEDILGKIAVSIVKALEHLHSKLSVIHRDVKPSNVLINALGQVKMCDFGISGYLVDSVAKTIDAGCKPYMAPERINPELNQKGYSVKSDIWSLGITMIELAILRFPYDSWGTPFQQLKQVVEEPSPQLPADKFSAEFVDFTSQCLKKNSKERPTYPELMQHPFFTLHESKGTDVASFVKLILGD
# T12 sequence (Q13464 whole entry): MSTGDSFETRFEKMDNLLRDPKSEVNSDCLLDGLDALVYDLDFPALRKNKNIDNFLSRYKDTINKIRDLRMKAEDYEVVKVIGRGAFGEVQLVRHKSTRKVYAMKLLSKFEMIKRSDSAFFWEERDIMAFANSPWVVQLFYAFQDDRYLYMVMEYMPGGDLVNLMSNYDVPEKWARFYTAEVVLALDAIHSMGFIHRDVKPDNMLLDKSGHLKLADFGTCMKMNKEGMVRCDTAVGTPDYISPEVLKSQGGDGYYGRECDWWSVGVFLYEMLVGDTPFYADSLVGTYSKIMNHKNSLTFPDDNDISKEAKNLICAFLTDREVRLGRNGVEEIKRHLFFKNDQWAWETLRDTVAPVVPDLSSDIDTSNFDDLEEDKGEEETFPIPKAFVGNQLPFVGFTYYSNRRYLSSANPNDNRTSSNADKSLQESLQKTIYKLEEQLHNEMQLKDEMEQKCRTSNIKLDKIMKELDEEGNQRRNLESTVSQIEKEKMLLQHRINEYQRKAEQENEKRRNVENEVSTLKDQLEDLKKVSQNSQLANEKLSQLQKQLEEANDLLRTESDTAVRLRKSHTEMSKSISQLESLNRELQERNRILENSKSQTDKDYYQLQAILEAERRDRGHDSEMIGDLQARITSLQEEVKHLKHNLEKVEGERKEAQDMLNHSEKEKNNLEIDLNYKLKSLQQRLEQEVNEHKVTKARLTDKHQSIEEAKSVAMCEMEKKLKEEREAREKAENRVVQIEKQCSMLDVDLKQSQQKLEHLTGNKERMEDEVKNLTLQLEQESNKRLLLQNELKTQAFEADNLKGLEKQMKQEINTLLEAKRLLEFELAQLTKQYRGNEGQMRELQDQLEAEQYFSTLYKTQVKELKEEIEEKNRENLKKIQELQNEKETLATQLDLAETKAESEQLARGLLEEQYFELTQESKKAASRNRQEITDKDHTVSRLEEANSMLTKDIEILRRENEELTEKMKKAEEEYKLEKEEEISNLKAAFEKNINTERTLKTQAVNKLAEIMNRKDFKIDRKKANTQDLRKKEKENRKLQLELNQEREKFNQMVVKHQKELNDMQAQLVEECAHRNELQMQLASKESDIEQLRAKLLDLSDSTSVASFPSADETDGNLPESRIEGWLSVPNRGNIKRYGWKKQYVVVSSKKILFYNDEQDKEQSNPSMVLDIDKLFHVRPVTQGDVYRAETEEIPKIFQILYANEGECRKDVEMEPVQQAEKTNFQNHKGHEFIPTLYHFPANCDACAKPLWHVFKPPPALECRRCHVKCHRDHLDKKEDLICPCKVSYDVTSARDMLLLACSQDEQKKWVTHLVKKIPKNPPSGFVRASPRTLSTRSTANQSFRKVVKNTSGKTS
# T30 sequence (P49674 whole entry): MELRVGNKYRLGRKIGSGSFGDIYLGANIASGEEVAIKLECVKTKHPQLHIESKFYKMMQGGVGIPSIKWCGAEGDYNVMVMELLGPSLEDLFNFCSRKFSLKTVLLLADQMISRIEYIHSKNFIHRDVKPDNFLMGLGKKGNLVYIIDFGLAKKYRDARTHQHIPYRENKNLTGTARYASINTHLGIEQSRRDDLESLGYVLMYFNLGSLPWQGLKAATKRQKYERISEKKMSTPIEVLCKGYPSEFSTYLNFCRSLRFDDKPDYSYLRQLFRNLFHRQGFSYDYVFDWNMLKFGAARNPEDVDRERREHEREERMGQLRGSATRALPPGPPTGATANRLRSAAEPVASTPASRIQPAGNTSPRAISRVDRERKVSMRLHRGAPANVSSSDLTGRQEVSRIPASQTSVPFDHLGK
# T20 sequence (O14965 whole entry): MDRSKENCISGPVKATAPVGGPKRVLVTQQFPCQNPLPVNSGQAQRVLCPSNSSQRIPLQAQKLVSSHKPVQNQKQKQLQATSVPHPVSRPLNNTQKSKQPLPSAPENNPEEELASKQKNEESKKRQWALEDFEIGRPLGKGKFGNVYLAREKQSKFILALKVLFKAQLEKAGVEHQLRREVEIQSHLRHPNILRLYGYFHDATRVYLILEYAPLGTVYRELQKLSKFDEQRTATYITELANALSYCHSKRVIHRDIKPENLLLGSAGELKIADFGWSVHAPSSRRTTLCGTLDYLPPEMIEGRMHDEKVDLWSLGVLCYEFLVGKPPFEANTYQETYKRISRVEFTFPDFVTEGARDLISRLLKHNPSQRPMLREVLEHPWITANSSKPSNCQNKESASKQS
# T25 sequence (P32298 whole entry): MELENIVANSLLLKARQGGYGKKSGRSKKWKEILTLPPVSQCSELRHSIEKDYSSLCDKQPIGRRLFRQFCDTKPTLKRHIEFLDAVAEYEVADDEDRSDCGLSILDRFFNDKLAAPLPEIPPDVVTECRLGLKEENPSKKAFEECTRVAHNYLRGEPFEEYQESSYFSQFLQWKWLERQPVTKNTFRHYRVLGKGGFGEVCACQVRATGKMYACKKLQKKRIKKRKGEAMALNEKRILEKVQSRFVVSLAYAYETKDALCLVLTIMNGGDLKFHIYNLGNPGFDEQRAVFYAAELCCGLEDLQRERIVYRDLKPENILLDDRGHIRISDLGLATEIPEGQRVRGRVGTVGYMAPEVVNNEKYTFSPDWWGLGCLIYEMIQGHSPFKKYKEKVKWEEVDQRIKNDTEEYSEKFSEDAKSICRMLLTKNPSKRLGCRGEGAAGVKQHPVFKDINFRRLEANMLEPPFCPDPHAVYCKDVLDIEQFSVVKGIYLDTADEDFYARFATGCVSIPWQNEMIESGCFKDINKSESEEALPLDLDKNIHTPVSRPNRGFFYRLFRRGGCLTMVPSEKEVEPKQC
smiles,measurement,setting,value
"c1cc(CC2CCOCC2)n2nc(Nc3ccc4c(NC5CCOCC5)n[nH]c4c3)nc2c1 [CC-509, [3-(2H-3,4,5,6-tetrahydropyran-4-ylamino)(1H-indazol-6-yl)][5-(2H-3,4,5,6-tetrahydropyran-4-ylmethyl)(2H-1,2,4-triazolo[1,5-a]pyridin-2-yl)]amine]",remaining activity at 3 µM,FGFR3_K650E_h,54%
same,remaining activity at 3 µM,PAK7_h,86%
same,remaining activity at 3 µM,MKK6_h,101%
same,remaining activity at 3 µM,MYLK2_h,80%
same,remaining activity at 3 µM,mTOR_h,92%
same,remaining activity at 3 µM,PKC-delta_h,91%
same,remaining activity at 3 µM,JNK3_h,94%
same,remaining activity at 3 µM,ARK5_h,7%
same,remaining activity at 3 µM,Mer_h,90%
same,remaining activity at 3 µM,Plk2_h,96%
same,remaining activity at 3 µM,PRAK_h,91%
same,remaining activity at 3 µM,ROCK-I_h,70%
same,remaining activity at 3 µM,p38-beta_h,84%
same,remaining activity at 3 µM,MST3_h,107%
same,remaining activity at 3 µM,Flt3_D835Y_h,-1%
same,remaining activity at 3 µM,CLK2_h,50%
same,remaining activity at 3 µM,IRR_h,99%
same,remaining activity at 3 µM,EGFR_L861Q_h,97%
same,remaining activity at 3 µM,Flt3_h; [1],6%
same,IC50,Flt3_h; [2],140 nM and 143 nM
same,remaining activity at 3 µM,CLK3_h,81%
same,remaining activity at 3 µM,Aurora-A_h,6%
same,remaining activity at 3 µM,PAK4_h,87%
same,remaining activity at 3 µM,PDGFR-alpha_D842V_h,9%
same,remaining activity at 3 µM,NEK2_h,101%
same,remaining activity at 3 µM,MARK4_h,33%
same,remaining activity at 3 µM,GRK4_h,82%
same,remaining activity at 3 µM,MLK1_h,2%
same,remaining activity at 3 µM,Aurora-B_h; [1],14%
same,IC50,Aurora-B_h; [2],410 nM and 409 nM
same,remaining activity at 3 µM,EGFR_L858R_h,101%
same,remaining activity at 3 µM,PRKG1_h,96%
same,remaining activity at 3 µM,PDGFR-beta_h,43%
same,remaining activity at 3 µM,CK1-epsilon_h,89%
same,remaining activity at 3 µM,TrkB_h,34%
